{
  "source": "paper PMC10820135",
  "about": "“Pharmacokinetic, Tissue Distribution, Metabolite, and Toxicity Evaluation of the Matrine Derivative, (6aS, 10S, 11aR, 11bR, 11cS)-10-Methylaminododecahydro-3a, 7a-Diaza-benzo (de) Anthracene-8-thione” (Molecules, 2024)",
  "key": {"[1]": {"test": "Metabolite profiling of MASM in rats by UHPLC-QQQ-MS/MS", "assay_type": "in vivo, Sprague-Dawley rats", "conditions": "rat", "procedure": "The identification of the in vivo metabolites of MASM was conducted using UHPLC-QQQ-MS/MS combined with standard references and deuterium-labeled MASM. The findings are presented in Table 2, while the proposed primary metabolic pathway of MASM in rats is depicted in Figure 4. To provide a comprehensive understanding of the metabolite identification process, three representative metabolites of MASM are presented, with their identification relying on primary and secondary mass spectrometry data, standard references, and deuterium-labeled MASM. The remaining metabolites are detailed in Supplementary File S4. For instance, the identification of the metabolite, M1, as a demethylation product of MASM was accomplished through the utilization of MS, MS/MS data, and the standard reference. […] Moreover, the identification of M1 as the demethylation metabolite of MASM was accomplished using the standard reference synthesized in our laboratory. […] Secondly, the metabolite, M2, of MASM was identified as the dehydrogenation product of MASM through the utilization of MS and MS/MS data. […] Consequently, M2 was identified as a dehydrogenation metabolite of M1. Thirdly, through the utilization of MS, MS/MS data, and deuterium-labeled MASM, the metabolite, M8, of MASM was determined to be a dehydrogenation product of MASM. […] The major MS/MS fragment ions of M8 were found at m/z 111.92, 178.77, 150.16, and 135.85, which aligned with the characteristic cleavage pattern of matrine. Additionally, our lab synthesized deuterium-labeled MASM to further support our proposed structure. […] Consequently, M8 was identified as a dehydrogenation metabolite of MASM. The EIC, MS/MS spectrum of M8 and deuterium-labeled MASM are all depicted in Figure 5C.\n(§1) UHPLC analysis was performed using a Thermo Accela AS system, employing an ACQUITY UPLC®BEH C18 (Waters Corporation, Wexfords, Ireland) (1.7 µm, 2.1 × 100 mm) column and a binary solvent system consisting of water containing 0.1% formic acid as mobile phase A and acetonitrile as mobile phase B. For pharmacokinetic evaluation, the gradient elution was set as follows: 97% A from 0 to 2 min, 97–70% A from 2 to 3 min, 70–20% A from 3 to 3.5 min, 20% A from 3.5 to 3.6 min, 20–97% A from 3.6 to 3.7 min, and 97% A from 3.7 to 5 min. For the metabolic test, the gradient elution in full scan mode was set as follows: 97% A from 0 to 2 min, 97–70% A from 2 to 4 min, 70–20% A from 4 to 6 min, 20% A from 6 to 7 min, 20–97% A from 7 to 8 min, and 97% A from 8 to 10 min. The flow rate was 0.2 mL/min, with a temperature of 40 °C maintained and an injection volume of 5 μL. The QQQ-MS/MS analysis was conducted using a Thermo TSQ QUANTUM ACCESS MAX system equipped with an electrospray ionization (ESI) source. The spray voltages were set at 4.0 kV and 2.5 kV for positive and negative ion modes, respectively; capillary and vaporizer temperatures were 320 °C and 350 °C, respectively; sheath and aux gas pressures were 35 and 10 psi, respectively.\nSeventy Sprague-Dawley rats were fasted overnight before dosing, with free access to water. Subsequently, the rats were randomly and equally divided into 7 groups: the control groups received 3 different routes of administration: intravenous, intraperitoneal, and intragastric (NS, saline 1 mL/100 g); MASM intraperitoneal group (A, i.p. 80 mg/kg), MASM intragastrical group (B, i.g. 60 mg/kg), MASM intravenous group (C, i.v. 15 mg/kg), and DMASM intragastrical group (D, i.g. 60 mg/kg). It is important to note that the recommended clinical dose of matrine injection is 0.15 g, which is equivalent to a dosage of 15 mg/kg in rats. MASM was administered via tail vein injection at a dosage of 1 mL/100 g for intravenous dosing, while for intraperitoneal dosing, MASM was injected at the lower-right side of the abdomen of rats. […]"}, "[2]": {"test": "Tissue distribution of MASM in rats", "assay_type": "in vivo, Sprague-Dawley rats", "conditions": "rat", "procedure": "as §1\nA total of 36 Sprague-Dawley rats (18 male and 18 female) were randomly and equally assigned to 6 groups, with 3 male and 3 female rats in each group. Among these groups, 3 groups were administrated MASM intragastrically at a dosage of 60 mg/kg, while the remaining 3 groups received intraperitoneal administration of MASM at a dosage of 80 mg/kg. The rats in each group were euthanized at three different time points: 1 h, 2 h, and 24 h after administration. Subsequently, various tissues, including the heart, liver, spleen, lung, kidney, stomach, muscle, and brain, were promptly collected and weighed. These tissues were then homogenized using acetonitrile at a ratio of 1:10 and stored at a temperature of −80 °C until further analysis. During the analysis of the tissue sample, the protein was precipitated following the tissues: acetonitrile with a ratio of 1:3 and a volume of 5μL of the resulting supernatant were injected. The UHPLC-QQQ-MS/MS analysis method that was developed, underwent a comprehensive validation process, and the concentration of MASM in each tissue was determined using linear regression equations. Bar graphs were generated by applying Prism 8.0 (GraphPad Software Inc., San Diego, CA, USA)."}},
  "note": "Entries after “also recorded” stand apart in the source; their conditions may differ.",
  "data": [
    {"compound": "CNC1CC(=S)N2CC3CCCN4CCCC(C34)C2C1", "note": "[MASM, (6aS, 10S, 11aR, 11bR, 11cS)-10-methylaminododecahydro-3a, 7a-diaza-benzo (de) anthracene-8-thione]", "values": [
      {"measurement": "number of in vivo metabolites identified", "setting": "[1]", "value": 10},
      {"measurement": "primary metabolic reactions (phase I)", "setting": "[1]", "value": "oxidation, reduction, and hydroxylation"},
      {"measurement": "tissues with concentration surpassing other organs at 1 h", "setting": "[2]; following the initial hour", "value": "liver, kidney, and intestine"},
      {"measurement": "time at which Cmax in liver tissue was achieved", "setting": "[2]; i.g. 60 mg/kg and i.p. 80 mg/kg", "value": "≤ 1", "unit": "h"},
      {"measurement": "tissue with higher concentration than other organs at 2 h and 24 h", "setting": "[2]; i.g. 60 mg/kg or i.p. 80 mg/kg", "value": "spleen and intestine"},
      {"measurement": "tissues of main distribution / higher accumulation", "setting": "[2]; i.g. 60 mg/kg or i.p. 80 mg/kg, 1, 2, 24 h", "value": "primarily distributed in the liver, kidney, and spleen tissues"},
      {"measurement": "detection in tissues", "setting": "[2]; heart, liver, spleen, lung, kidney, brain, muscle, intestine, stomach", "value": "detected in all rat tissues including the brain; also recorded: detected in various tissues at 1, 2, and 24 h after administration"}
    ]}
  ]
}
